The results in this text go back to patent US20040081688A1, “Amphiphilic lipid nanoparticles for peptide and/or protein incorporation” (priority 2000, published 2004).

Data set [1] is described as follows: Antide semi-quantitative solubility evaluation (maximum loading) in lipids. The format is physicochemical. The conditions noted are these: Antide maximum loading in the lipid named in the row.
Data set [2] can be described thus: Partition coefficient octanol/water. The format is physicochemical. Particulars: 24 hours at room temperature, ratio of drug concentration in organic and water phase by RP-HPLC. As to the method:
Partition coefficient: it was determined using octanol as organic phase and water as hydrophilic phase. The two phases were first saturated with each other for 24 hours at room temperature. Antide was then dissolved in the water phase at a concentration well below saturation. An equal volume of organic phase was subsequently added to the water phase and the mixture was kept under stirring for 24 hours at room temperature. Antide concentration in the two phases was determined by RP-HPLC and the partition coefficient was obtained from the ratio between the drug concentration in organic and water phase.
The resulting octanol/water coefficient was 8.56·10^−2

Regarding `CCCCCCCCCCCCCCCCO` [Cetil alcohol], the “Antide loading (%)” value in data set [1] is 3.7 × 10^−2 - not soluble %.
In the case of “N-Ac-D-2-Nal, D-pClPhe, D-3-Pal, Ser, NicLys, D-NicLys, Leu, Ilys, Pro, D-Ala, NH2 [Antide]”, the octanol/water coefficient in data set [2] is 8.56·10^−2.
